Measurements taken from paper PMC4257840 (Journal of Medicinal Chemistry, 2014).

Columns and labels:
[1] = molecular target: T1, Factor Xa from human plasma (Homo sapiens, UniProt P00742); experiment: Protease counter-screening: Factor Xa; assay type: biochemical
T1 construct: containing 0.4 nM Factor Xa from human plasma; from tissue; host or cells: human plasma
Procedure: Appendix 7. Protease Counter -Screening
Protease counter-screeni ng was performed using the methods described below. Initial screening was conducted in duplicate using a single test substance concentration of 10 µ M .
Additional assays were conducted in replicate for selected pairin gs of test s ubstance and enz yme in order to enable the determination of IC50 values using conventional procedures.
Determination of K i was made using the Batch K i program (Biokin Ltd, Pullman, WA) to derive values from the Morrison equation: […]
Where [E ] is the active enz yme concentration, Kiapp is the apparent inhibition const ant, v 0 is the control velocit y in the absence of inhibitors, vb is the background velocity, v is the initial reaction velocit y in the presence of inhibitor, and I is the inhibitor concentration.Thence:
Where [S ] is the substrate concentration and KM is the Michealis constant. […]
Test compound or vehicle was pre- incubated with 600 […]
The reaction was […]
initiated by addition of 1 µM N-CH3-SO2-D-FGR-pNA for another 120 min incubation period.
The amount of pNA formed was read spectrophotometricall y at 405 nm.
Factor Xa: Test compound or vehicle was pre -incubated for 15 min at 25 °C in modified 50 mM Tris-HCl buffer pH 7.6 containing 0.4 nM Factor Xa from human plasma. The reaction was initiated by addition of 0.3 mM N-a-Z-D-RGR-pNA for another 60 min incubation period. […]

[2] = molecular target: T2, cathepsin H purified from human liver (Homo sapiens, UniProt P09668); experiment: Protease counter-screening: Cathepsin H; assay type: biochemical
T2 construct: Tests were performed using cathepsin H purified from human liver; from tissue; host or cells: human liver
T2 sequence (P09668 98-335): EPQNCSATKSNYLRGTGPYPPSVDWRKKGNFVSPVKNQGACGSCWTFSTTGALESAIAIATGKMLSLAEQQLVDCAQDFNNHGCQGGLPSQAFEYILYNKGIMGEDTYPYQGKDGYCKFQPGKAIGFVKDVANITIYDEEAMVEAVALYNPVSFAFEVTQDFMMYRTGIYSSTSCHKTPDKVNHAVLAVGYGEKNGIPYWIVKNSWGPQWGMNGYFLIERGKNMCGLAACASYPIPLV
Procedure: Cathep sin H: Tests were performed using cathepsin H purified from human liver. Test compound or vehicle was pre -incubated with 3.3 mU/mL enz yme in sodium acetate buffer pH 5.5 for 15 min at 25 °C. The reaction was initiated by addition of 20 µM L-RR- AMC for another

T1 sequence (P00742 235-488 limits assumed): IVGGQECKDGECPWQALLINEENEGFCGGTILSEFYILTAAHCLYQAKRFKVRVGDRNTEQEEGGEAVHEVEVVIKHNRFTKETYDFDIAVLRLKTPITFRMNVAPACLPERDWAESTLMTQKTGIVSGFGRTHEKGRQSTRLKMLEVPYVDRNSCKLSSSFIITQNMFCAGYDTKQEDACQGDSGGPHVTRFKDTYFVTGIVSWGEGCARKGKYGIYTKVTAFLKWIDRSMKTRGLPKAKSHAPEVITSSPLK
T1 sequence (P00742 41-179 limits assumed): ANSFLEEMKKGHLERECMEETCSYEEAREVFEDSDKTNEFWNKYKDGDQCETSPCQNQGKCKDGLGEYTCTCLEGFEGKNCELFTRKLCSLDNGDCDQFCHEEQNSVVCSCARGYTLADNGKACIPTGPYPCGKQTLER

CC(C)[C@H](NC(=O)[C@H](C)NC(=O)[C@@H](NC(=O)c1ccccc1)C(C)(C)C)C(=O)C(=O)NCc1ccccc1 [Compound 38, N-{(S)-1-[(S)-1-((S)-1-Benzylaminooxalyl-2-methyl-propylcarbamoyl)-ethylcarbamoyl]-2,2-dimethyl-propyl}-benzamide]
inhibition at 10 µM [1]: 7% | inhibition at 10 µM [2]: 13%
